The SangsterLogP compilation

Assay: from Nakagawa, S.; Okajima, N.; Kitahaba, T.; Nishimura, K.; Fujita, T.; Nakajima, M. (1982). Quantitative structure-activity studies of substituted benzylchrysanthemates. I. Correlation between …

Structure (SMILES)	logP
COC(=O)C1C(C=C(Cl)Cl)C1(C)C (stereo not drawn)	3.63
CC(=O)OCc1coc(Cc2ccccc2)c1	3.24
C=CCC1=C(C)[C@H](OC(=O)C2C(C=C(C)C)C2(C)C)CC1=O (stereo partly drawn)	4.78
CC(C)=C[C@@H]1[C@@H](C(=O)OCc2ccccc2[N+](=O)[O-])C1(C)C	5.2
CC(=O)OCc1ccc(C)cc1	2.44
CC(=O)OCc1ccc(Cl)cc1	2.59
COC(=O)C1C(C=C2CCSC2=O)C1(C)C (stereo not drawn)	2.33
COC(=O)[C@@H]1[C@@H](C=C(C)C)C1(C)C	3.76
CC(=O)OCc1ccc([N+](=O)[O-])cc1	1.73
CC(=O)OCN1C(=O)C2=C(CCCC2)C1=O	1.15
CC(C)=C[C@@H]1[C@@H](C(=O)OCc2ccc(C#N)cc2)C1(C)C	4.91
CC(C)=CC1C(C(=O)OCc2ccccc2)C1(C)C (stereo not drawn)	5.49
COc1cccc(COC(C)=O)c1	2.02
